Assay results reported in US11083773B2, “Peptides that block leukocyte recruitment and methods of use” (ARCH CANCER THERAPEUTICS, INC., priority 2014, dated 2021).

How the values were obtained:
[1] = tested on: 143B human osteosarcoma cells; experiment: Tail vein injection of 143B human osteosarcoma cells, mouse model for metastasis; assay type: in vivo
Protocol: 5×10^5 143B human osteosarcoma cells stably expressing luciferase were injected into the tail vein of animals 5 mins after IV delivery of PBS or LSALT-peptide. Animals were sacrificed after 3 weeks. Lungs were then harvested, fixed in formalin, and embedded in paraffin. […] Metastatic lesions were visualized by staining human 143B osteosarcoma cells with anti-human nucleolin (brown). […] PBS n=4. LSALT-peptide n=6.
In a similar model, 5×10^5 143B human osteosarcoma cells stably expressing luciferase were injected into the tail vein of animals 5 mins after IV delivery of PBS or LSALT-peptide. Animals were imaged weekly using bioluminescence imaging (Xenogen, IVIS 200).

[2] = tested on: 70 W human melanoma cells; experiment: Tail vein injection of 70 W human melanoma cells expressing luciferase, lung tumor burden; assay type: in vivo, mice
Protocol: FIG. 13A-13F show the tumor burden in lung tissue from mice injected via tail vein with 1×10^6 70 W human melanoma cells expressing luciferase, with or without prior injection of 50 μM or 500 μM LSALT peptide (13A-13C) and representative images of lungs with visible melanotic lung […] in mice injected via tail vein with 1×10^6 70 W human melanoma cells expressing luciferase, with or without prior injection of 50 μM or 500 μM LSALT peptide mice (13D-13F).
FIG. 14A-14D show Xenogen images of lungs from mice injected via tail vein with human melanoma cells expressing luciferase with (14B) and without (14A) pretreatment with LSALT; and Xenogen images of lungs from mice injected treated as described for FIGS. 13A and 13B, and in the presence (14D) and absence (14C) of neutrophil depletion using anti-Ly6G/GRI antibody.
In one treatment study, […] melanoma cells expressing luciferase were injected via tail vein with or without prior injection of 50 μM or 500 μM LSALT peptide.
Animals were treated as above in the absence or presence of Neutrophil depletion using Anti-Ly6G/GR1, and the animals were imaged with the Xenogen light system.

BALB/c mice = experiment: LPS intoxication model of sepsis; assay type: in vivo; details: versus control-bacteriophage/LPS and LPS only
Text: An intoxication model of sepsis was used to assess peptide efficacy on sepsis. In intoxication models, mice are challenged with a noninfectious, proinflammatory compound, such as LPS or killed bacteria. In the present study, protocols were used that followed Andonegui G, et al., J Clin Invest. 2009 July; 119(7):1921-30; and Yipp B G, et al. J Immunol. 2002 May 1; 168(9):4650-8.
Briefly, purified LPS isolated from E. Coli was used to initiate endotoxemia response in BALB/c mice 6-8 weeks old. Mice were injected with LSALT bacteriophage that contain lethal amounts of LPS endotoxin.
When the animals started to show signs of distress they were sacrificed by euthanasia. All mice treated in this group (5 out of 5) had to be sacrificed due to a septic response.

[3] = tested on: 4T1 murine breast cancer cells; experiment: Intrasplenic injection of 4T1 murine breast cancer cells, liver metastasis; assay type: in vivo, mouse; details: 4-week post injection; control phage or LSALT expressing phage
[4] = prior injection of 50 μM or 500 μM, 4 weeks post-injection

Question: How did the “metastatic burden in mouse liver by bioluminescence (FIG. 16)” value ([1]; IV delivery 5 mins before cells, 3 weeks post injection) turn out when “LSALTPSPSWLKYKAL (listed as Homo sapiens) [LSALT peptide]” was run?
Answer: reduction in bioluminescence

Question: And the “number of metastatic lesions in mouse lung (FIG. 15)” value ([1]; IV delivery 5 mins before cells, 3 weeks, histological sections)?
Answer: reduction in metastatic lesions

Question: What about the “metastatic spread of osteosarcoma cell line” value ([1]; mouse, in vivo) of the same sequence?
Answer: blocks the metastatic spread of an osteosarcoma cell line to the liver

Question: What about the “tumor burden by Xenogen imaging with neutrophil depletion (FIGS. 14C, 14D)” value ([2]; neutrophil depletion using Anti-Ly6G/GR1) of the same sequence?
Answer: the same result was seen

Question: What about the “tumor burden in the lungs, histology and excised lungs (FIG. 13)” value [2, 4] of the same sequence?
Answer: the least tumor burden

Question: And the “visible melanotic lung nodules (FIG. 13)” value [2, 4]?
Answer: least frequently

Question: What about the “tumor burden by Xenogen imaging (FIGS. 14A, 14B)” value ([2]; without neutrophil depletion) of the same sequence?
Answer: progressively less tumor burden

Question: And the “neutrophil adhesion in sinusoids / neutrophil recruitment to the liver (FIG. 17A)” value (BALB/c mice)?
Answer: reduced neutrophil recruitment to the liver

Question: And the “FIG. 12 result, printed as number of neutrophils present in liver sinusoid tissue” value [3]?
Answer: significantly reduced the number of neutrophils present in liver sinusoid tissue
